According to ChEMBL document CHEMBL1132307, “(2R,1'S,2'R,3'S)-2-(2'-Carboxy-3'-phenylcyclopropyl)glycine (PCCG-13), the first potent and selective competitive antagonist of phospholipase D-coupled metabotropic glutamate receptors: asymmetric synthesis and preliminary biological properties” (J Med Chem, 1999):

Columns and labels:
Assay type in all cases: functional, tissue-based
Conditions in all cases: Hippocampus
[1] = Agonistic activity against phospholipase D (PLD) was determined in adult rat hippocampal slices
[2] = Antagonistic activity against phospholipase D (PLD) was determined in adult rat hippocampal slices
[3] = Antagonistic activity against phospholipase C (PLC) was determined in adult rat hippocampal slices

IC50 [2] [µM] | IC50 [3] [µM] | SMILES | EC50 [1] [µM]
530 | – | CC(N)(C(=O)O)c1ccc(C(=O)O)cc1 (stereo unspecified) | 110
– | – | N[C@@]1(C(=O)O)CC[C@@H](C(=O)O)C1 | 30
70 | – | N[C@H](C(=O)O)c1cc(O)cc(O)c1 | –
0.025 | > 300 | NC(C(=O)O)[C@@H]1[C@H](C(=O)O)[C@H]1c1ccccc1 (stereo partly specified) | –
